The source of these data is ChEMBL document CHEMBL4196200 (J Med Chem, 2018).

The Emax is the size of the effect at its maximum, as opposed to the concentration needed. As usually defined, the inhibition is the relative decrease from the control value, in per cent. One may read the IC50 as the concentration that inhibits the measured activity by half. The EC50 is the midpoint of the concentration-response curve.

≈ marks a conversion by molar mass, not a printed value. Calls of active or inactive are those of the source. No cut-off for these calls is given here.

Data set [1] has as its system Mus musculus. The experiment in a line: Effect on social interaction in Oprm1+/+ mouse model of autism spectrum disorders assessed as grooming episodes occurring after social contact at 10 mg/kg, ip pre-treated before open-field test for 10 mins. The data set is classed as ADME, organism-based. The conditions noted are these: in vivo.
Data set [2] can be described thus: Thermodynamic solubility in pH 7.4 buffer. It counts as physicochemical. The settings on record: read-out: Therm_solubility.
The target in data set [3] is T1, Vasopressin V2 receptor (Homo sapiens, UniProt P30518). The experiment in a line: Agonist activity at human V2 receptor expressed in HEK293FT cells assessed as stimulation of calcium release by Aequorin based assay relative to AVP. The data set is classed as functional, cell-based.
T1 sequence (P30518 whole entry): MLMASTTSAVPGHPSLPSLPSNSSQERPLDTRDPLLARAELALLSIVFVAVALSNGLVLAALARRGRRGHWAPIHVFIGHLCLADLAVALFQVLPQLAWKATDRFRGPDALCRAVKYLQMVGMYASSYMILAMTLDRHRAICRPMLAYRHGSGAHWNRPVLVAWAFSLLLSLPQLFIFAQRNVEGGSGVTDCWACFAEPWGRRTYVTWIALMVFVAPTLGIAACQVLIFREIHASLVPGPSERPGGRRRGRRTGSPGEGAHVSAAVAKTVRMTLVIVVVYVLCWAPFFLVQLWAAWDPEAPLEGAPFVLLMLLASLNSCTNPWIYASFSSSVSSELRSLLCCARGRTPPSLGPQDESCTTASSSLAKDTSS
In data set [4] the target is T2, Oxytocin receptor (Homo sapiens) (UniProt P30559).
T2 sequence (whole entry): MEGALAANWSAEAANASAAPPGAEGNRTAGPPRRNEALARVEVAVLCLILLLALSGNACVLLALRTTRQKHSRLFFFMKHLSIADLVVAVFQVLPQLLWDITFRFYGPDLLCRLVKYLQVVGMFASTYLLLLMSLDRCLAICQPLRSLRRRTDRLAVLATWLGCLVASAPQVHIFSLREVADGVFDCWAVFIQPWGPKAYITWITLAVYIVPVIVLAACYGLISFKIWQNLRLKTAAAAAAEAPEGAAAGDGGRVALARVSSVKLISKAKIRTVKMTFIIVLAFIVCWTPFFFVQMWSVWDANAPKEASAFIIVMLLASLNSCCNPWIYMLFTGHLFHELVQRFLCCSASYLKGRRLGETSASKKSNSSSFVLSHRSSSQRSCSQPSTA
The experiment in a line: Antagonist activity at human OTR expressed in HEK cells assessed as inhibition of OT-induced intracellular calcium flux at 1 uM incubated for 45 mins by Indo1-AM dye based fluorescence assay relative to OT. The data set is classed as functional, cell-based. On the technique in general: A change in cytosolic calcium serves as a functional read-out for many receptors and channels.

Another data set addresses Vasopressin V1a receptor (Homo sapiens, UniProt P37288). The experiment in a line: Antagonist activity at human V1a receptor expressed in HEK293FT cells assessed as inhibition of AVP-induced response incubated for 30 mins by beta-arrestin recruitment assay. The data set is classed as functional, cell-based.
The target in data set [5] is T3, Oxytocin receptor (Homo sapiens, UniProt P30559).
T3 sequence (P30559 whole entry): T2 sequence (whole entry)
The experiment in a line: Agonist activity at human OTR expressed in HEK cells assessed as increase in intracellular calcium flux incubated for 45 mins by Indo1-AM dye based fluorescence assay. It counts as functional, cell-based.

For data set [6], the target named is T1, Vasopressin V2 receptor. The experiment in a line: Agonist activity at human V2 receptor expressed in HEK293FT cells incubated for 30 mins by beta-arrestin recruitment assay. The data set is classed as functional, cell-based. A general note: Arrestin recruitment assays detect the binding of arrestin to an activated receptor.
The subject of data set [7] is Mus musculus. The experiment in a line: Effect on social interaction in Oprm1+/+ mouse model of autism spectrum disorders assessed as increase in number of following episodes at 10 mg/kg, ip pre-treated before open-field test for 10 mins. The conditions noted are these: in vivo. It counts as ADME, organism-based.
For data set [8], the system named is Mus musculus. The experiment in a line: (§1) Effect on social interaction in Oprm1+/+ mouse model of autism spectrum disorders assessed as time spent in nose contacts at 10 mg/kg, ip pre-treated before open-field test for 10 mins. It counts as ADME, organism-based. The conditions noted are these: in vivo.
For another data set, the target named is T4, Vasopressin V1b receptor (Homo sapiens, UniProt P47901).
T4 sequence (P47901 whole entry): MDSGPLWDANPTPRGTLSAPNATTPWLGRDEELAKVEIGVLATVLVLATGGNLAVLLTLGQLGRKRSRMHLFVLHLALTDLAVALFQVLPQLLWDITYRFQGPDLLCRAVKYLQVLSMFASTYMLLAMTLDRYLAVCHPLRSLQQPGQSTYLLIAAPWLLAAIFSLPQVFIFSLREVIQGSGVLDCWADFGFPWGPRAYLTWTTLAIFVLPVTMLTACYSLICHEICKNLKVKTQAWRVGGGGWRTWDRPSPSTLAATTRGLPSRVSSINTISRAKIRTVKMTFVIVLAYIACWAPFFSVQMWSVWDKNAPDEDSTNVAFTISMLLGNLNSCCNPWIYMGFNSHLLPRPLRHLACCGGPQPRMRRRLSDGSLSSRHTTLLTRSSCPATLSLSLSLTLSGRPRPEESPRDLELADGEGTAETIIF
The experiment in a line: Antagonist activity at human V1b receptor expressed in HEK293FT cells assessed as inhibition of AVP-induced calcium release by Aequorin based assay. The data set is classed as functional, cell-based.

Data set [9] has as its system Mus musculus. The experiment in a line: Improvement in social interaction in Oprm1-/- mouse model of autism spectrum disorders assessed as restoration of number of nose contacts at 10 mg/kg, ip pre-treated before open-field test for 10 mins. The data set is classed as functional, organism-based.
Data set [10] in a line: AUC in brain of CD1 mouse at 10 mg/kg, ip measured over 15 mins to 240 mins by UHPLC-MS/MS method. The data set is classed as ADME, organism-based. Set-up: dose 10 mg/kg, time upper 4 hr, time lower 0.25 hr, route intraperitoneal. The conditions noted are these: in vivo.
Data set [11] has as its system Mus musculus. The experiment in a line: Improvement in social interaction in Oprm1-/- mouse model of autism spectrum disorders assessed as restoration of number of following episodes at 10 mg/kg, ip pre-treated before open-field test for 10 mins. The data set is classed as functional, organism-based.
Data set [12] addresses T5, Oxytocin receptor (Mus musculus, UniProt P97926).
T5 sequence (P97926 whole entry): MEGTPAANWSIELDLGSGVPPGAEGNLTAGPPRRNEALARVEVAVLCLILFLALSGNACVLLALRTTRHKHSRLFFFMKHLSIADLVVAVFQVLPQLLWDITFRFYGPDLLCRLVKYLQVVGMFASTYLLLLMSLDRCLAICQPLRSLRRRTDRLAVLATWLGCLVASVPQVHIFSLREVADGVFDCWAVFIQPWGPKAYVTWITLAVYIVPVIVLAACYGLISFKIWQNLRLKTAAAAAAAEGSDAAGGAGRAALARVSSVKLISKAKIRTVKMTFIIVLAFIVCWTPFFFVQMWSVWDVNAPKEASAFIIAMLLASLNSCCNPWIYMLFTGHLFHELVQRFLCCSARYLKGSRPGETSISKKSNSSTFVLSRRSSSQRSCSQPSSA
The experiment in a line: Agonist activity at mouse OTR receptor expressed in HEK293FT cells assessed as stimulation of calcium release by Aequorin based assay. It counts as functional, cell-based.

Data set [13] relates to Mus musculus. The experiment in a line: Improvement in social interaction in Oprm1-/- mouse model of autism spectrum disorders assessed as suppression of grooming episodes occurring after social contact at 20 mg/kg, ip pre-treated before open-field test for 10 mins. The data set is classed as functional, organism-based.
Data set [14] concerns Mus musculus. The experiment in a line: Improvement in social interaction in Oprm1-/- mouse model of autism spectrum disorders assessed as restoration of time spent in nose contacts at 10 mg/kg, ip pre-treated before open-field test for 10 mins. It counts as functional, organism-based.
For data set [15], the system named is Mus musculus. The experiment in a line: Effect on social interaction in Oprm1+/+ mouse model of autism spectrum disorders assessed as number of nose contacts at 10 mg/kg, ip pre-treated before open-field test for 10 mins. The data set is classed as ADME, organism-based. The conditions noted are these: in vivo.
Data set [16] concerns Mus musculus. The experiment in a line: (§2) Effect on social interaction in Oprm1+/+ mouse model of autism spectrum disorders assessed as mean duration of nose contacts at 10 mg/kg, ip pre-treated before open-field test for 10 mins. The data set is classed as ADME, organism-based. The settings on record: in vivo.
Data set [17] concerns the target T3, Oxytocin receptor. The experiment in a line: Agonist activity at human OTR receptor expressed in HEK293FT cells incubated for 30 mins by beta-arrestin recruitment assay. It counts as functional, cell-based.
Data set [18] concerns Mus musculus. The description is as §2. It counts as ADME, organism-based. The settings on record: in vivo. The source holds these as a separate data set.
Data set [19] concerns Mus musculus. The experiment in a line: Improvement in social interaction in Oprm1-/- mouse model of autism spectrum disorders assessed as suppression of grooming episodes occurring after social contact at 10 mg/kg, ip pre-treated before open-field test for 10 mins. It counts as functional, organism-based.
For data set [20], the target named is T2, Oxytocin receptor (Homo sapiens). The experiment in a line: Agonist activity at human OTR receptor expressed in HEK293FT cells incubated for 30 mins by beta-arrestin recruitment assay relative to OT. It counts as functional, cell-based.
Data set [21] concerns Mus musculus. The description is as §1. It counts as ADME, organism-based. The conditions noted are these: in vivo. The source holds these as a separate data set.
Data set [22] addresses T2, Oxytocin receptor (Homo sapiens). The experiment in a line: Agonist activity at human OTR expressed in HEK cells assessed as increase in intracellular calcium flux incubated for 45 mins by Indo1-AM dye based fluorescence assay relative to OT. It counts as functional, cell-based.

Sequence of Vasopressin V1a receptor (P37288 whole entry): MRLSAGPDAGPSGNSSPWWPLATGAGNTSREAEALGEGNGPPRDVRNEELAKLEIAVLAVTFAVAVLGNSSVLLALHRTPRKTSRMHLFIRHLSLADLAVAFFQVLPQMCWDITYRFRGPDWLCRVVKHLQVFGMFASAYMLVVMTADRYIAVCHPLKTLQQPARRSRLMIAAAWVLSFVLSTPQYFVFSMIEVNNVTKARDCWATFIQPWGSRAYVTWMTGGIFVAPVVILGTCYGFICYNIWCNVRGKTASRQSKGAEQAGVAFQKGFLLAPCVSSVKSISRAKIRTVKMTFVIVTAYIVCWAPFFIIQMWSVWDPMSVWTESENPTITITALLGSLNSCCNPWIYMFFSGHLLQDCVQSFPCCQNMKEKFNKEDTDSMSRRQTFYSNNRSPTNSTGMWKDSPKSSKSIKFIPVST

`Cc1cc(C(=O)N2Cc3cnn(C)c3Nc3ccccc32)ccc1CNC(=O)N1CCC[C@H]1C(=S)N(C)C`: the Activity result is given as “Toxic” with Mus musculus [1]; “Toxic” with Mus musculus [7]; “Non-Toxic” in the data set on Mus musculus [8]; “Toxic” in the data set with Mus musculus [15]; “Non-Toxic” in the data set on Mus musculus [16]; “Toxic” in the data set with Mus musculus [18]. Also, the Activity entry in the data set with Mus musculus [21] is “Toxic”. The solubility thermodynamic in [2] is 680 µM (≈ 362 µg/mL). Further, the figures for the Emax (at Vasopressin V2 receptor [3]; in [20]; in data set [22]) were 101%, 77% and 52%, respectively. Moreover, in data set [4], the inhibition lay within 5 to 10%. In addition, the IC50 was 2200 nM at Vasopressin V1a receptor and “Not Active” on Vasopressin V1b receptor. Moreover, the concentration giving a half-maximal response (EC50) at Oxytocin receptor [5] was 55 nM; on Vasopressin V2 receptor [6] it was 660 nM; on Oxytocin receptor [12] it was 18 nM; on Oxytocin receptor [17], 62 nM. The outcome in the data set on Mus musculus [9], in the data set with Mus musculus [11], in the data set with Mus musculus [14] and in the data set with Mus musculus [19] was Active. Further, in [10], the AUC worked out at 399 ng·min/g. In addition, in the data set with Mus musculus [13], the result was inactive.
